Experimental data taken from patent US4226856A, “Preparation and use of bouvardin and deoxybouvardin” (University Patents, Inc., priority 1978, dated 1980).

Experiments:
[1] = tested on: cells of human adenocarcinoma of the nasopharynx (KB); test: "KB" test, Cell Culture Screen KB Protocol 1.600; type: cell-based; settings: 3 days after drug addition, average
Experimental: The in vitro "KB" tests were carried out according to "Cell Culture Screen KB--Protocol 1.600" (id., p. 17) using cells of human adenocarcinoma of the nasopharynx. Test results are expressed as the dose that inhibits cell growth to 50% of control growth by 3 days after drug addition.

Solubility in water = type: physicochemical
Description: (§1) As one example, the "PS" and "Bl" tests noted above involved subcutaneous administration of the test compounds in simple water solution forms. It is expected that water solutions of bouvardin and deoxybouvardin would ordinarily be stabilized by addition of antioxidant substances.

Melanotic Melanoma B 16 = test: "Bl" test, Melanotic Melanoma B 16 Protocol 1.300; type: in vivo; settings: mice, subcutaneous, water solution
Experimental: The in vivo "Bl" were carried out on mice according to "Melanotic Melanoma B 16--Protocol 1.300" (id., p. 11) with reporting and evaluation procedures identical to those of the "PS" test.
as §1

[2] = tested on: Lymphocytic Leukemia P388; test: "PS" test, Lymphocytic Leukemia P388 Protocol 1.200; type: in vivo; settings: mice; for RANGE OF % T/C: "PS" test
Experimental: The in vivo "PS" tests were carried out on mice according to "Lymphocytic Leukemia P388--Protocol 1.200", published in Cancer Chemotherapy Reports, Part 3, Vol. 3, No. 2, page 9, (September 1972) with results reported in terms of percent survivals of test versus control animals (%T/C).
as §1

Row | Structure (SMILES) | "KB" test ED 50 (dose that inhibits cell growth to 50% of control growth) [1] | Solubility in water (Solubility in water) | "Bl" test activity, % T/C (Melanotic Melanoma B 16; doses 0.12 to 2.0 mg/kg) | RANGE OF % T/C ([2]; DOSE 0.04) | RANGE OF % T/C ([2]; DOSE 0.07) | RANGE OF % T/C ([2]; DOSE 0.11) | RANGE OF % T/C ([2]; DOSE 0.16) | RANGE OF % T/C ([2]; DOSE 0.25) | RANGE OF % T/C ([2]; DOSE 0.50) | RANGE OF % T/C ([2]; DOSE 1.00) | RANGE OF % T/C ([2]; DOSE 2.00) | "PS" test activity, % T/C (survival of test versus control animals) ([2]; dose levels 0.02 to 2.0 mg/kg, subcutaneous, water solution) | "Bl" test activity, % T/C (Melanotic Melanoma B 16; 0.25 to 8.0 mg/kg doses) | "PS" test activity, % T/C ([2]; 0.04 to 2.0 mg/kg doses, subcutaneous, water solution)
1 | COc1ccc(C[C@H]2C(=O)N[C@@H](C)C(=O)N(C)[C@@H]3C(=O)N(C)[C@@H](Cc4ccc(O)c(c4)Oc4ccc(cc4)[C@@H]3O)C(=O)N[C@H](C)C(=O)N[C@@H](C)C(=O)N2C)cc1 [bouvardin] | about 4.3×10^-7 μg/L | partially soluble in water | 134-152 % T/C | 134 % T/C | 139 % T/C | 150 to 164 % T/C | 158 % T/C | 161 to 188 % T/C | 135 to 186 % T/C | 148 to 217 % T/C | 167 to 205 % T/C | 135 to 217 % T/C | – | –
2 | COc1ccc(C[C@H]2C(=O)N[C@@H](C)C(=O)N(C)[C@H]3Cc4ccc(cc4)Oc4cc(ccc4O)C[C@@H](C(=O)N[C@H](C)C(=O)N[C@@H](C)C(=O)N2C)N(C)C3=O)cc1 [deoxybouvardin] | 1.9e-08 ng/mL | partially soluble in water | – | – | – | – | – | – | – | – | – | – | 133-175 % T/C | 142-216 % T/C
